The record followed here is US20220062299A1, “USE OF GLUCOCORTICOID STEROIDS IN PREVENTING AND TREATING CONDITIONS OF MUSCLE WASTING, AGING AND METABOLIC DISORDER” (NORTHWESTERN UNIVERSITY, priority 2018, published 2022).

Assay [1] relates to BCKDHA and mTOR pathway members in mdx muscle. As to the kind of experiment: Protein analysis of BCKDHA and mTOR pathway members in mdx muscle. Format: in vivo, mouse. The conditions noted are these: weekly prednisone. Here is the method:
Animal handling and steroid regimens. Mice were housed in a pathogen-free dedicated vivarium in accordance with Institutional Animal Care and Use Committee (IACUC) guidelines. Euthanasia was performed through carbon dioxide inhalation followed by cervical dislocation and heart removal. All methods using living animals in this study were performed in ethical accordance with the American Veterinary Medical Association (AVMA) and under protocols fully approved by both the Institutional Animal Care and Use Committee (IACUC) at Northwestern University Feinberg School of Medicine (protocol number ISO00000761). Consistent with the ethical approvals, all efforts were made to minimize suffering. Mice were fed ad libitum with Mouse Breeder Sterilizable Diet (#7904; Harlan Teklad, Indianapolis, Ind.) and maintained on a 12-hour light/dark cycle. mdx mice from the DBA/2J background were obtained from the Jackson Laboratory (Bar Harbor, Me.; stock #013141) and interbred. Male mice were used for reported experiments. Age at start was approximately 6 months for short-term experiments, approximately 6 weeks for long-term experiments. Dysferlin-null (Dysf-null) mice from the 129T2/SvEmsJ background were previously characterized (Demonbreun et al., 2011; Demonbreun et al., 2014). Age at start was approximately 9 months for long-term experiments. For experiments with Dysf-null and wildtype mice, both females and males (approximately 1:1 ratio) were randomized in treatment groups. […] Dosing was based on weekly weight measurements (1 mg/kg body weight, (Sali et al., 2012)) in 100 μl total PBS volume per dose. Mice were injected daily via intraperitoneal injection at 7 AM. On injection days, stock solutions stored at −20° C. were diluted into sterile Eppendorf tubes containing sterile phosphate buffered saline (PBS) (#14190; Thermo Fisher, Waltham, Mass.). Puromycin (cat #A1113803, Thermo Scientific, Waltham, Mass.) was administered i.p. as 0.040 μmol/body g, and tissues were snap-frozen 30 minutes after injection. Sterile BD Micro-Fine IV Insulin Syringes (#14-829-1A; Fisher Scientific, Waltham, Mass.) were used to inject the intraperitoneal cavity of non-sedated animals. All animal analyses both during treatment and at endpoint were conducted blinded to treatment groups.
Protein analysis. Protein lysates from approximately 50 mg muscle tissue were obtained with homogenization at the TissueLyser II (cat #85300; Qiagen, Hilden, Germany) for two rounds of 2 minutes each with 2 minutes pause in between, using sample plates chilled at −20° C. o/n and one stainless 5 mm bead per sample (cat #69989; Qiagen, Hilden, Germany). […]

Assay [2] deals with mdx; Dysf-null; Sgcg-null mice. As to the kind of experiment: Once-weekly glucocorticoids in three murine models of muscle disease. Type of assay: in vivo, mouse. The conditions noted are these: 1 mg/kg once-weekly, contrary to daily dosing. The text has this: Glucocorticoid steroids are widely prescribed drugs for chronic inflammatory conditions, and their daily intake generally correlates with muscle wasting and weakness, osteoporosis, obesity and metabolic disorders. […] (Quattrocelli et al, J Clin Invest 2017; Quattrocelli et al, Am J Pathol 2017; Quattrocelli et al., JCI Insight. 2019 Dec. 19; 4(24). pii: 132402. doi: 10.1172/jci.insight.132402).

Where [3] appears, read: mdx muscle, 12-week-long treatment.

As for `C[C@]12C=CC(=O)C=C1CC[C@@H]1[C@@H]2C(=O)C[C@@]2(C)[C@H]1CC[C@]2(O)C(=O)CO` [prednisone, Prednisone], in assay [1] (setting [3]), the “levels of mTOR-bound RagC and phosphorylation of S6K and 4EBP1” value is given as “increased”; the “protein translation and muscle mass (puromycin incorporation and myofiber size)” value is listed as “increased”. In addition, in assay [1] (quadriceps muscle of mdx mice), the “phosphorylation of BCKDHA” value is on record as “reduced” and the “total levels of branched chain keto acid dehydrogenase (BCKDHA)” value is on record as “increased”. The “muscle force and mass” value in assay [2] is “improved”.
